Data on seven compounds can be found in patent publication US20140147853A1, “Method for Predicting Respiratory Toxicity of Compounds” (priority 2009, published 2014).

“Also recorded” adds a separate entry of the source. Read-outs that look alike come from different tables or passages of the source.

Data set [1] relates to EPIAIRWAY cells. Briefly: Intracellular glutathione (GSH) levels, oxidative stress. In kind it is cell-based, human. The procedure: (§1) The dosing regimen used here brackets this dose. […] Again, the dosing regimen used brackets this concentration. […] This calculates to 750 ng/cm^2.
Intracellular glutathione levels were determined essentially as described by Griffith (1980) with modifications. At the end of the exposure period, the medium was removed from the cells and metaphosphoric acid (MPA) was added to each well. Plates were then shaken for 5 min at room temperature and stored at −20° C. until needed.

Data set [2] can be described thus: Literature: phase 1 study of inhaled doxorubicin. The conditions noted are these: calculated from 7.5 mg/m^2. The format is in vivo, human. The protocol: as §1
For data set [3], the system named is EPIAIRWAY cells. Briefly: Histology of EPIAIRWAY 3-D model (structural integrity). The format is cell-based, human. The protocol:
as §1
Cells were isolated using a 3 mm biopsy punch (Miltex, York, PA) and immediately placed in […] 10% Neutral Buffered Formalin (Fisher Diagnostics, Middletown, Va.). Histology was performed essentially as described by Sheehan and Hrapchak (1980). Briefly, cells were processed and embedded into paraffin wax blocks. The blocks were sectioned at 3 μm, adhered to slides and stained with hematoxylin and eosin. Photos were taken at 10× magnification.

For data set [4] the following is noted: every 3 weeks, phase 1 study (Otterson 2007); cited from earlier work.
The subject of the next data set is IL-6. Nature of the data set: qRT-PCR gene expression in EPIAIRWAY cells. In kind it is cell-based, human. The conditions noted are these: for IL-6 mRNA expression vs control: 24 hours, 1, 10, 30, 100 dosed. The protocol: as §1
(In qPCR the cycle at which signal appears reflects the starting amount.)

The test system of another data set is TNF-α. Nature of the data set: qRT-PCR gene expression in EPIAIRWAY cells. The format is cell-based, human. Conditions: for TNF-α mRNA expression vs control: 1, 10, 30, 100 dosed. The procedure: as §1
Another data set deals with IL-8. Briefly: qRT-PCR gene expression in EPIAIRWAY cells. The format is cell-based, human. Conditions: 24 hours. The protocol:
as §1

Another data set relates to Bcl2. Nature of the data set: qRT-PCR gene expression in EPIAIRWAY cells. In kind it is cell-based, human. The conditions noted are these: 24 hours. The protocol: as §1
Another data set deals with IL-1α. Briefly: qRT-PCR gene expression in EPIAIRWAY cells. The format is cell-based, human. The conditions noted are these: 24 hours; 1, 10, 30, 100 dosed. The protocol: as §1
In a further data set the test system is Bax. Briefly: qRT-PCR gene expression in EPIAIRWAY cells. In kind it is cell-based, human. Conditions: 24 hours. The protocol:
as §1

Data set [5] deals with EPIAIRWAY cells. Nature of the data set: Cell viability by MTT reduction in EPIAIRWAY 3-D model. The format is cell-based, human. The procedure: as §1
Cell viability was determined by measuring the reduction of 3-[4,5-dimethylthiazol-2-yl]2,5-diphenyltetrazolium bromide (MTT). The cells in each well were evaluated for their ability to reduce soluble-MTT (yellow) to formazan-MTT (purple). An MTT stock solution was prepared […] complete medium just prior to use and warmed to 37° C. in a water bath. Once the media and dosing solution was removed from all wells, MTT solution was added to the basal side of each well and the plate was allowed to incubate at 37° C. for 3-4 hr. Media was removed and the purple formazan product was extracted using anhydrous isopropanol applied to both the apical and basal side of the cells. Sample absorbance was read at 570 nm and reference absorbance at 650 nm with a Packard Fusion or equivalent plate reader.
(In general: Tetrazolium dyes change colour on reduction, which living cells bring about.)

The test system of another data set is human epithelial cells. Conditions: Han et al., 2007; cited from earlier work.
In data set [6] the test system is human fetal lung fibroblasts. Conditions: Yang et al., 1997; cited from earlier work.
The subject of data set [7] is EPIAIRWAY cells. Briefly: LDH release into the media by EPIAIRWAY cells. In kind it is cell-based, human. Conditions: 100 μM. The source says:
The primary shortcoming of this model system appears to be that the MTT results to not compare well with histology. This may be due to the fact that the basal cell layers have the highest metabolic activity given that they are still rapidly dividing. […] Fortunately, there appears to be a much more concise method to assess cytotoxicity in this model system. Lactate dehydrogenase is a cytosolic enzyme commonly used as a marker for cell membrane permeability, and therefore, cytotoxicity (Davies et al., 1973).

Data set [8] deals with human lung epithelia and fibroblasts. Conditions: in vitro (Sato 1999, Takamizawa 1999); ~7.1 μM; cited from earlier work.
In another data set the test system is TGF-β. Briefly: qRT-PCR gene expression in EPIAIRWAY cells. The conditions noted are these: 24 hours of exposure. The format is cell-based, human. The procedure: as §1
Data set [9] has as its system fetal human lung cells and human lung fibroblasts. The conditions noted are these: Sakaguchi 1984, Lehnert 2001; cited from earlier work.
The mark [10] stands for this setting: 24 hours, 1, 10, 30, 100 dosed, >2-fold significant.
Where [11] appears, read: any dose (1, 10, 30, 100), 24 and 72 hours.
The mark [12] stands for this setting: dose-dependent, 1-100 μM, maximum reached.

Method for CYP1A1: The three-dimensional in vitro human [sequence] system may be purchased from MatTek (Ashland, Mass.). Cultures are maintained with supplied culture media according to the manufacturer's instructions. Briefly, [sequence] 96-well plates are allowed to equilibrate in 250 μL media for at least 18 hours overnight at 37° C. with 5% CO2 upon arrival. Media is changed every other day if cells are not used immediately after equilibration.
In the Examples described below, dosing solutions were prepared in DPBS (MatTek, Ashland, Mass.). The [sequence] cells were dosed with 100 μL of the following concentrations: 1, 10, 30 and 100 μM bleomycin, cadmium chloride, beryllium sulfate and doxorubicin; 1, 10, 30 and 100 μg/cm^2 silica; and 1, 10, 30 and 100 ng/mL LPS. […] The dosing regimen used here brackets this dose. […] Again, the dosing regimen used brackets this concentration. […] This calculates to 750 ng/cm^2. The concentrations and volumes dosed calculate to 483 ng/cm^2 (1 μM), 4.83 μg/cm^2 (10 μM), 14.5 μg/cm^2 (30 μM) and 48.3 μg/cm^2 (100 μM) doxorubicin, bracketing the safe range. MIN-U-SIL 5 silica, with an average surface area of 5.1 cm^2/g gives the following concentrations dosed: 0.051 cm^2/cm^2 (1 μg/cm^2), 0.51 cm^2/cm^2 (10 μg/cm^2), 1.53 cm^2/cm^2 (30 μg/cm^2) and 5.1 cm^2/cm^2 (100 μg/cm^2). […] In order to analyze the acute response of [sequence] cells to LPS, cells are exposed to LPS concentrations ranging from 1 ng/mL to 100 ng/mL. Following the exposure period, the dosing solutions are removed and cells are analyzed for changes in structure, cell viability, oxidative stress and gene expression.
Total RNA was isolated from [sequence] human respiratory cells by the TRIZOL (Invitrogen, Carlsbad, Calif.) method (Chomczynski and Sacchi, 1987)with modifications. Briefly, cells were punched out using a biopsy punch (Miltex, York, Pa.) and immediately placed in TRIZOL. The samples were then frozen at −80° C. until needed. After thawing, the isolation procedure followed the manufacturer's instructions.
Induction of target gene mRNA was determined as follows, by standard one-step qRT-PCR techniques using multiple internal control genes for normalization with a few modifications (Vandesompele et al, 2002). RT-PCR was performed using the Quantitect® SYBR Green RT-PCR kit (Qiagen, Valencia, Calif.) according to the manufacturer's instructions for 20 μL reactions. All primers were [sequence] Primer Assay (Qiagen, Valencia, Calif.) containing forward and reverse primers in the same tube (see Table 1, below). Briefly, 50 ng of RNA in 20 μL reactions are set up in 384-well RT-PCR plates (Roche Diagnostics Corp., Indianapolis, Ind.) and placed in a [sequence] 480 real time PCR machine (Roche Diagnostics Corp., Indianapolis, Ind.). One-step PCR was set as follows; reverse transcription was 1 cycle of 50° C. for 30 minutes followed by 95° C. for 15 minutes. Amplification was set for 45 cycles of 94° C. for 15 seconds, 55° C. for 20 seconds and 72° C. for 20 seconds. Melting curve was generated by 1 cycle of 95° C. for 5 seconds followed by 65° C. for 1 minute. Data were analyzed using the [sequence] 480 software version 1.5.0.39 (Roche Diagnostics Corp., Indianapolis, Ind.). The expression levels of multiple housekeeping genes were determined and an average fold induction over vehicle was elucidated for each housekeeping gene.

Regarding `COc1cccc2c1C(=O)c1c(O)c3c(c(O)c1C2=O)C[C@@](O)(C(=O)CO)C[C@@H]3O[C@H]1C[C@H](N)[C@H](O)[C@H](C)O1` [Doxorubicin], the “Intracellular GSH” value in the data set with EPIAIRWAY cells [1] (100 μM, 72 hours) is on record as 10 % of control; in the data set with EPIAIRWAY cells [1] (10, 30 and 100 μM, 24 hours), 80 % of control. Further, in the data set with CYP1A1, the “CYP1A1 mRNA expression vs control” value is given as “substantially induced”. For the same compound, in data set [2], the “Safe inhalation dose recalculated per area” value is reported as 750 ng/cm^2. Moreover, the “Histology: cell structure” value in the data set with EPIAIRWAY cells [3] (24 hours) is “significant structural breakdown and loss of cells; also recorded: significant structural breakdown and cell loss”. Besides, in [4], the “Dose identified as safe for inhalation” value is listed as “up to 7.5 mg/m^2”. Further, in the data set with IL-6, the “IL-6 mRNA expression vs control” value is reported as “substantially induced”. In the data set with TNF-α (24 hours), the “TNF-α mRNA expression vs control” value is listed as “substantially induced”. Further, the “IL-8 mRNA expression vs control” value with IL-8 (only 1 μM) is reported as “mildly induced”. Moreover, the “Bcl2 mRNA expression vs control” value in the data set on Bcl2 (1, 10, 30 and 100 μM) is listed as “substantially induced”. The “IL-1α mRNA expression vs control” value in the data set with IL-1α is “substantially induced”. Further, the “Ratio of Bax:Bcl2 expression” value in the data set on Bax is given as “decreased”. Moreover, the “Effect on cell viability (MTT)” value was “no effect on cell viability” in the data set on EPIAIRWAY cells [5] (1 μM, either time point (24, 72 hours)); “not observed” with EPIAIRWAY cells [5] (24 hours, 1, 10, 30 and 100 μM). Moreover, in the data set on EPIAIRWAY cells [5] (100 μM, 72 hours), the “Cell viability (MTT)” value is reported as 57 % of control.
Consider lipopolysaccharide [LPS], for which the “Intracellular GSH” value with EPIAIRWAY cells [1] (100 ng/mL, 24 hours) was 65 % of control. Moreover, the “CYP1A1 mRNA expression vs control” value with CYP1A1 (setting [10]) is “dose-dependant increase”. For the same compound, in the data set with IL-6, the “IL-6 mRNA expression vs control” value is on record as “substantial, dose-independant induction”. Moreover, the “TNF-α mRNA expression vs control” value with TNF-α (24 hours) was “substantial, dose-independant induction”. In the data set on IL-8 (1, 10, 30, 100 dosed), the “IL-8 mRNA expression vs control” value was “mild induction”. Moreover, the “Bcl2 mRNA expression vs control” value in the data set with Bcl2 (only 30 and 100 ng/mL) is reported as “induced”. The “IL-1α mRNA expression vs control” value in the data set on IL-1α is “substantial, dose-independant induction”. In the data set with EPIAIRWAY cells [5] (setting [11]), the “Effect on cell viability (MTT)” value is on record as “did not reduce cell viability”.
Regarding `[Cl][Cd][Cl]` [Cadmium chloride, cadmium chloride], the “Effect on intracellular GSH” value in the data set on EPIAIRWAY cells [1] (24 hours, 1, 10, 30 and 100 μM) was “no reduction”. The “CYP1A1 mRNA expression vs control” value in the data set with CYP1A1 (setting [10]) was “substantially induced”. Also, the Concentration exhibiting cytotoxicity in the data set on human epithelial cells was 50 µM. The “Histology: cell structure” value in the data set with EPIAIRWAY cells [3] (10 μM, 24 hour exposure) is “cell loss”; in the data set on EPIAIRWAY cells [3] (100 μM, 24 hour exposure), “much more noticeable a breakdown of cellular structure”; in the data set with EPIAIRWAY cells [3] (24 hours) it was “significant structural breakdown and cell loss”. In the data set on IL-6, the “IL-6 mRNA expression vs control” value is “substantially induced”. Also, the “TNF-α mRNA expression vs control” value in the data set with TNF-α (24 hours) is “mild induction”. The “Bcl2 mRNA expression vs control” value in the data set with Bcl2 (100 μM) is “mildly induced”. In addition, the “Bax mRNA expression vs control” value in the data set with Bax (100 μM) is “mildly induced”. Further, in data set [6], the “Concentration inducing significant LDH release” value is 8.75 µM. Besides, the “Cell viability (MTT)” value with EPIAIRWAY cells [5] (100 μM, 24 hours) was 56 % of control.
With `O=S(=O)([O-])[O-].[Be+2]` [Beryllium sulfate, beryllium sulfate], the “Intracellular GSH” value with EPIAIRWAY cells [1] (1 μM, 72 hours) is given as 65 % of control; in the data set with EPIAIRWAY cells [1] (30 μM, 72 hours), 83 % of control; with EPIAIRWAY cells [1] (100 μM, 72 hours), 71 % of control. Also, the “Effect on intracellular GSH” value in the data set on EPIAIRWAY cells [1] (10 μM, 72 hours) is “did not have an effect”; in the data set with EPIAIRWAY cells [1] (24 hours, 1, 10, 30 and 100 μM), “no effect”. The “CYP1A1 mRNA expression vs control” value in the data set with CYP1A1 (setting [10]) is given as “substantially induced”. In addition, in the data set on IL-6, the “IL-6 mRNA expression vs control” value is listed as “substantially induced”. For the same compound, the “TNFα mRNA expression vs control” value with TNF-α (100 μM, 24 hours) is on record as “mildly induced”. The “IL-8 mRNA expression vs control” value in the data set on IL-8 (1 and 30 μM) was “mildly induced”. For the same compound, in the data set on Bcl2 (100 μM), the “Bcl2 mRNA expression vs control” value is listed as “mildly induced”. In the data set on IL-1α, the “IL-1α mRNA expression vs control” value is listed as “substantially induced”. Further, in the data set on EPIAIRWAY cells [5] (setting [11]), the “Effect on cell viability (MTT)” value was “did not reduce cell viability”.
Bleomycin: the “LDH release into the media, increase compared to control” value in the data set on EPIAIRWAY cells [7] (24 hours) came to 292%; in the data set on EPIAIRWAY cells [7] (72 hours), 588%. Further, the “Intracellular GSH” value in the data set with EPIAIRWAY cells [1] (1 μM, 72 hours) is on record as 71 % of control. For the same compound, the “Total cellular GSH” value with EPIAIRWAY cells [1] (100 μM, 24 hours) is reported as 75 % of control. Further, the “CYP1A1 mRNA expression vs control” value in the data set on CYP1A1 (setting [10]) is on record as “greatly induced”. Moreover, the “Concentration inducing cytokine release while relatively non-toxic” value in data set [8] is 10 µg/mL. Besides, in the data set on EPIAIRWAY cells [3] (24 hours), the “Histology: cell structure” value is “significant structural breakdown and cell loss; also recorded: significant structural breakdown and loss of cells”. In addition, the “IL-6 mRNA increase over control tissues” value in the data set on IL-6 (setting [12]) is reported as above 20 fold. The “TNF-α mRNA increase over control tissues” value in the data set on TNF-α (setting [12]) is above 20 fold. In addition, the “IL-8 mRNA expression vs control” value in the data set on IL-8 (1, 10, 30, 100 dosed) is given as “induced in a dose-dependent manner”. The “TGF-β mRNA expression vs control” value in the data set on TGF-β is “induction was not seen”. In the data set with Bcl2 (1, 10, 30 and 100 μM), the “Bcl2 mRNA expression vs control” value is reported as “induced”. Also, the “IL-1α mRNA expression vs control” value in the data set on IL-1α was “induced in a dose-dependent manner”. Moreover, the “Ratio of Bax:Bcl2 expression” value in the data set with Bax was “decreased”. The “Effect on cell viability (MTT)” value in the data set on EPIAIRWAY cells [5] (24 hours, 1, 10, 30 and 100 μM) is “no effect on viability”. In addition, in the data set with EPIAIRWAY cells [5] (72 hour exposure, 1, 10, 30 and 100 μM dosed), the “Cell viability (MTT)” value is recorded as 90 % of control.
On to Triton X-100, for which the “Histology: killing of basal cell layers” value in the data set with EPIAIRWAY cells [3] (0.3%, 24 hours) is “unable to kill these bottom layers of cells”.
As to `[Be+2]` [Beryllium], in data set [9], the Lowest cytotoxic concentration was at least 5.5 µM.
